Earlier results on two compounds are cited in US5716935A, “Use of antiotensin II analogs in tissue repair” (University of Southern California, priority 1996, dated 1998).

One data set deals with wound tissue. The following applies: applied to wound tissue; U.S. Pat. No. 5,015,629.
A further data set concerns aminopeptidase. The note with it: reported in literature.

In the case of “Asp-Arg-Val-Tyr-Ile-His-Pro-Phe [angiotensin II, octapeptide present in humans and other species; known pressor agent]”, the “rate of wound healing” value with wound tissue is “significantly increases”.
In the case of `CC[C@H](C)[C@H](NC(=O)[C@H](Cc1ccc(O)cc1)NC(=O)[C@@H](NC(=O)[C@H](CCCNC(=N)N)NC(=O)CNC)C(C)C)C(=O)N[C@@H](Cc1cnc[nH]1)C(=O)N1CCC[C@H]1C(=O)N[C@@H](Cc1ccccc1)C(=O)O` [Analog 4, Sar-Arg-Val-Tyr-Ile-His-Pro-Phe], the cleavage by aminopeptidase result with aminopeptidase is recorded as “resistant”.
